According to patent publication US7163700B2, “Amorphous drug beads” (Capricorn Pharma, Inc., priority 2001, dated 2007):

Test: Dissolution test of amorphous Itraconazole drug beads versus crystalline Itraconazole (FIG. 1)
Type: physicochemical
Conditions: over the same time period
Source text: Quantities of Itraconazole and Pluronic™ F68 in a ratio of 9 parts Itraconazole to 1 part Pluronic™ F68 were melted separately in an oil bath. Once both components were completely melted, they were combined, emulsified with high shear, and poured onto a cold plate to cool rapidly.

CCC(C)n1ncn(-c2ccc(N3CCN(c4ccc(OCC5COC(Cn6cncn6)(c6ccc(Cl)cc6Cl)O5)cc4)CC3)cc2)c1=O (stereo not shown) [crystalline Itraconazole, 4-[4-[4-[4-[[2-(2,4-Dichlorophenyl)-2-(1H-1,2,4-triazol-1-ylmethyl)-1,3-dioxolan-4-yl]methoxy]phenyl]-1-piperazinyl]phenyl]-2,4-dihydro-2-(1-methylpropyl)-3H-1,2,4-triazol-3-one]
dissolution rate (percent dissolution versus time): 20%
